We go through 12 compounds from patent US9493396B2, “Substituted naphthalene compounds as calcium sensing receptor modulators” (LUPIN ATLANTIS HOLDINGS SA, priority 2013, dated 2016).

Where a name gives a salt, the structure may show the parent alone.

This assay concerns the target T1, Calcium sensing receptor (hCaSR) (Homo sapiens, UniProt P41180).
T1 construct: expressed in transfected cells; host or cells: HEK293 (stably transfected)
T1 sequence (P41180 20-1078): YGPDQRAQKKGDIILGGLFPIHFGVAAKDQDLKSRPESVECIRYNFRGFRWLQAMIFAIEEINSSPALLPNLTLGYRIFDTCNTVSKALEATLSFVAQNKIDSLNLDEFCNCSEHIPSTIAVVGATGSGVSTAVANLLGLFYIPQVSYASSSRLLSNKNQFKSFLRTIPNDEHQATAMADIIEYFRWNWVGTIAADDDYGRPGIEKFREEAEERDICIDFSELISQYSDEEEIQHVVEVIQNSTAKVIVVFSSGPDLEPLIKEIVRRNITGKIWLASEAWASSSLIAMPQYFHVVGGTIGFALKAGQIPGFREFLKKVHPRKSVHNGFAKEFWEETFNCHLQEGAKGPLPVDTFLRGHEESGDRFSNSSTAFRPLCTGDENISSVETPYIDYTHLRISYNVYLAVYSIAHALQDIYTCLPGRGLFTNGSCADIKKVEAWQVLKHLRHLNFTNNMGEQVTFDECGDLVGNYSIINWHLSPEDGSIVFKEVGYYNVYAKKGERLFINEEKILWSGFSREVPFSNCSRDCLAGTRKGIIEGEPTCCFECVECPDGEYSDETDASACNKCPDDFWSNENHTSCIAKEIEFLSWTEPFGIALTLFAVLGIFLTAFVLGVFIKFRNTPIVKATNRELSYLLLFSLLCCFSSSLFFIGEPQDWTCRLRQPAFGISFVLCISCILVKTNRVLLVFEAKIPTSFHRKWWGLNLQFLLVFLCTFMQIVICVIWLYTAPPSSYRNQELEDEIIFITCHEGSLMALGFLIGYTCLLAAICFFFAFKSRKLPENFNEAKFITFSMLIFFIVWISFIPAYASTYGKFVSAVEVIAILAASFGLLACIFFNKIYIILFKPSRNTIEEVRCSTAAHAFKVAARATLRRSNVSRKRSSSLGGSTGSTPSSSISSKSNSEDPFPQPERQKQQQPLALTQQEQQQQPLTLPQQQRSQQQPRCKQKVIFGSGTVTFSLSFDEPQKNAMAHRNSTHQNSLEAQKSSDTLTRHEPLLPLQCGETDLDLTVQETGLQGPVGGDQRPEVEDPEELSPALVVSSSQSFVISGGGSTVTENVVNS
Kind of assay: In-vitro assay of calcimimetics through modulation of calcium sensing receptor (intracellular calcium increase, FLIPR). To be noted: stably transfected HEK293 cells expressing hCaSR; Fluo4NW dye; 0.3 mM CaCl2; 8-point assay; read-out: EC50 in range. In kind it is cell-based. The essentials: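 Stably transfected HEK293 cells expressing hCaSR, loaded 30 min with Fluo4NW dye. Intracellular calcium rise measured on FLIPR in 20 mM HEPES buffer with 0.3 mM CaCl2. EC50 derived from 8-point concentration series.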
(In general: Calcium assays in cells follow changes in intracellular calcium, usually with a dye or a luminescent sensor.)
As to `COc1cccc([C@@H](C)NC(C)c2cc(-c3ccc(C(=O)O)c(C(F)(F)F)c3)c3ccccc3c2)c1` (stereo partly drawn) [Example 124, 4-(3-(1-(((R)-1-(3-Methoxyphenyl)ethyl)amino)ethyl)naphthalen-1-yl)-2-(trifluoromethyl) benzoic acid hydrochloride], the EC50 (usually the concentration needed to bring the measured effect to its halfway point) fell in the range of 0.02 to 0.05 µM.

Turning to `COc1cccc([C@@H](C)NC(C)c2cc(-c3cc(C)cc(C(=O)O)c3)c3ccccc3c2)c1` (stereo partly drawn) [Example 125, 3-(3-(1-(((R)-1-(3-Methoxyphenyl)ethyl)amino)ethyl)naphthalen-1-yl)-5-methylbenzoic acid hydrochloride], the half-maximal effective concentration (EC50) lay within 0.05 to 0.4 µM.

For `CCOc1cccc([C@@H](C)NC(C)c2cc(-c3ccc(F)c(C(=O)O)c3)c3ccccc3c2)c1` (stereo partly drawn) [Example 126, 5-(3-(1-(((R)-1-(3-Ethoxyphenyl)ethyl)amino)ethyl)naphthalen-1-yl)-2-fluorobenzoic acid hydrochloride], the EC50 is less than 0.02 µM.

As to `CC(N[C@H](C)c1cccc(Cl)c1)c1cc(-c2ccc(F)c(C(=O)O)c2)c2ccccc2c1` (stereo partly drawn) [Example 127, 5-(3-(1-(((R)-1-(3-Chlorophenyl)ethyl)amino)ethyl)naphthalen-1-yl)-2-fluorobenzoic acid hydrochloride], the EC50 lay in the range of 0.05 to 0.4 µM.

For `COc1cccc([C@@H](C)NC(C)c2cc(-c3ccc(C(F)(F)F)c(C(=O)O)c3)c3ccccc3c2)c1` (stereo partly drawn) [Example 128, 5-(3-(1-(((R)-1-(3-Methoxyphenyl)ethyl)amino)ethyl)naphthalen-1-yl)-2-(trifluoromethyl) benzoic acid hydrochloride], the EC50 is 0.05 to 0.4 µM.

Take `COc1cccc([C@@H](C)NC(C)c2cc(-c3cccc(CCC(=O)O)c3F)c3ccccc3c2)c1` (stereo partly drawn) [Example 129, 3-(2-Fluoro-3-(3-(1-(((R)-1-(3-methoxyphenyl)ethyl)amino)ethyl)naphthalen-1-yl)phenyl)propanoic acid hydrochloride]: the EC50 is less than 0.02 µM.

`COc1cccc([C@@H](C)NC(C)c2cc(-c3ccc(C(=O)O)c(C)c3)c3ccccc3c2)c1` (stereo partly drawn) [Example 130, 4-(3-(1-(((R)-1-(3-Methoxyphenyl)ethyl)amino)ethyl)naphthalen-1-yl)-2-methylbenzoic acid hydrochloride]: the EC50 fell in the range of 0.05 to 0.4 µM.

As for `COc1cccc([C@@H](C)NC(C)c2cc(-c3ccc(OC)c(CCC(=O)O)c3)c3ccccc3c2)c1` (stereo partly drawn) [Example 131, 3-(2-Methoxy-5-(3-(1-(((R)-1-(3-methoxyphenyl)ethyl)amino)ethyl)naphthalen-1-yl)phenyl) propanoic acid hydrochloride], the EC50 was 0.02 to 0.05 µM.

On to `COc1cccc([C@@H](C)NC(C)c2cc(-c3ccc(C(=O)O)c(F)c3)c3ccccc3c2)c1` (stereo partly drawn) [Example 132, 2-Fluoro-4-(3-(1-(((R)-1-(3-methoxyphenyl)ethyl)amino)ethyl)naphthalen-1-yl)benzoic acid hydrochloride], for which the EC50 was in the range of 0.05 to 0.4 µM.

Consider `COc1cccc([C@@H](C)NC(C)c2cc(-c3ccc(Cl)c(C(=O)O)c3)c3ccccc3c2)c1` (stereo partly drawn) [Example 133, 2-Chloro-5-(3-(1-(((R)-1-(3-methoxyphenyl)ethyl)amino)ethyl)naphthalen-1-yl)benzoic acid hydrochloride], for which the EC50 is less than 0.02 µM.

With `COc1cccc([C@@H](C)NC(C)c2cc(-c3cc(F)cc(CCC(=O)O)c3)c3ccccc3c2)c1` (stereo partly drawn) [Example 134, 3-(3-Fluoro-5-(3-(1-(((R)-1-(3-methoxyphenyl)ethyl)amino)ethyl)naphthalen-1-yl)phenyl)propanoic acid hydrochloride], the EC50 is less than 0.02 µM.

As for `COc1cccc([C@@H](C)NC(C)c2cc(-c3ccc(C(F)(F)C(=O)O)cc3)c3ccccc3c2)c1` (stereo partly drawn) [Example 135, 2,2-Difluoro-2-(4-(3-(1-(((R)-1-(3-methoxyphenyl)ethyl)amino)ethyl)naphthalen-1-yl)phenyl) acetic acid hydrochloride], the EC50 is less than 0.02 µM.
